{"source": "paper PMC10812672", "about": "“Short Antimicrobial Peptide Derived from the Venom Gland Transcriptome of Pamphobeteus verdolaga Increases Gentamicin Susceptibility of Multidrug-Resistant Klebsiella pneumoniae” (Antibiotics, 2023)", "key": {"[1]": {"test_system": "E. coli ATCC® 25922", "format": "cell-based, Escherichia coli", "settings": "CLSI broth microdilution, Mueller-Hinton broth, peptide 30 µM, ~6 × 10^6 CFU/mL, 24 h 37 °C, OD600; triplicate, three independent assays; NA = no activity", "experimental": "(§1) Activity screening was conducted using the broth microdilution method at a fixed peptide concentration of 30 µM against E. coli ATCC® 8739 and 25922, as well as S. aureus ATCC® 6538 and 29213. The bacterial density used for screening was approximately 6 × 10^6 CFU/mL [30]. Peptide activity measurements were conducted in terms of the growth inhibition percentage. No dose-response curves were generated during the screening phase as a resource optimization strategy in the initial activity evaluation. […] For S. aureus ATCC® 6538 and S. aureus ATCC® 29213, growth inhibition ranged from 0% to 140% and 0% to 98%, respectively (Table 1).\n(§2) The evaluation of the antimicrobial activity of the peptides was conducted using the CLSI’s broth microdilution method for bacterial susceptibility testing. For the screening phase, peptides were evaluated at a single 30 μM concentration, in triplicate and in three independent assays, against the E. coli ATCC® 8739, E. coli ATCC® 25922, S. aureus ATCC® 6538, or S. aureus ATCC® 29213 reference USP and CLSI strains. For the determination of MIC, MBC, or IC50, peptides or antibiotics were evaluated in concentrations between 1.56–200 µM. These evaluations were conducted in triplicate and in three independent assays, against the E. coli ATCC® 25922, S. aureus ATCC® 29213, E. faecalis ATCC® 49532, P. aeruginosa ATCC® 9027, and K. pneumoniae ATCC® BAA-1705, or the clinically isolated MDR strain. In detail, 1 mL of a glycerol stock solution of the ATCC® or clinically isolated bacterial strain was added to 9 mL of Mueller-Hinton Broth and incubated for 18 h, 180 rpm and 37 °C (Incubator 1000, Heidolph Instruments, Schwabach, Germany). After the incubation, 1 mL of the previous solution was transferred to a new recipient containing 9 mL of fresh Mueller-Hinton broth and incubated for 4 h, 180 rpm and 37 °C (Incubator 1000, Heidolph Instruments, Schwabach, Germany). During the second incubation, the peptides or the antibiotics were dissolved in PBS pH 7.20 in concentrations between 19.53–2500 µM (MC5 Micro Balance, Sartorius AG, Göttingen, Germany). An amount of 10 µL of either peptide or antibiotic was dispensed in triplicate in 96-well flat bottom culture plates, along with 10 µL of PBS (Negative activity control), BTM-P1 (Positive activity control), or 10 µL of Mueller-Hinton broth (Blank); then, 110 µL of Mueller-Hinton broth was poured in all wells. Following this, the bacteria were suspended in Mueller-Hinton broth up to a concentration of approximately 1.50 × 10^8 CFU/mL, as measured by optical density at 600 nm between 0.06 to 0.11 (0.5 McFarland standard), in a Multiskan SkyHigh spectrophotometer (ThermoFisher Scientific, Waltham, MA, USA). Amounts of 5 µL of the 1.50 × 10^8 CFU/mL suspension were added to each well (except for the blank) for a final well concentration of approximately 6 × 10^6 CFU/mL. The plate was incubated for 24 h at 37 °C (BE 500, Memmert GmbH, Büchenbach, Germany) and optical density was measured at 600 nm in a Multiskan SkyHigh spectrophotometer (ThermoFisher Scientific, Waltham, MI, USA). Following the measurement of optical density, plates were visually inspected to determine the MIC. Subsequently, 100 µL of the concentration associated to the MIC and 100 µL of the next higher concentration were added to Petri dishes containing Mueller-Hinton Agar. The dishes were then incubated for 24 h at 37 °C (BE 500, Memmert GmbH, Büchenbach, Germany). After incubation, the Petri dishes were visually inspected, and the MBC was determined in the absence of growth. IC50 values were interpolated from regressions with correlation values above 0.70. Growth inhibition percentages were calculated as follows: Growth inhibition %=1−AbsPEPTIDE or ANTIBIOTIC−Median AbsBLANK/Median AbsPBS−Median AbsBLANK×100"}, "[2]": {"test_system": "E. coli ATCC® 8739", "format": "cell-based, Escherichia coli", "settings": "CLSI broth microdilution, Mueller-Hinton broth, peptide 30 µM, ~6 × 10^6 CFU/mL, 24 h 37 °C, OD600; triplicate, three independent assays; NA = no activity", "experimental": "as §1, §2"}, "[3]": {"test_system": "S. aureus ATCC® 29213", "format": "cell-based, Staphylococcus aureus", "settings": "CLSI broth microdilution, Mueller-Hinton broth, peptide 30 µM, ~6 × 10^6 CFU/mL, 24 h 37 °C, OD600; triplicate, three independent assays; NA = no activity", "experimental": "as §1, §2"}, "[4]": {"test_system": "S. aureus ATCC® 6538", "format": "cell-based, Staphylococcus aureus", "settings": "CLSI broth microdilution, Mueller-Hinton broth, peptide 30 µM, ~6 × 10^6 CFU/mL, 24 h 37 °C, OD600; triplicate, three independent assays; NA = no activity", "experimental": "as §1, §2"}, "[5]": {"test_system": "K. pneumoniae ATCC® BAA-1705", "format": "cell-based, Klebsiella pneumoniae", "experimental": "The nine AMPs identified in the initial screening were evaluated at concentrations between 1.56–200 µM, against E. coli ATCC® 25922, S. aureus ATCC® 29213, E. faecalis ATCC® 49532, P. aeruginosa ATCC® 9027, and K. pneumoniae ATCC® BAA-1705 (Supplementary Figures S2–S6). […] Only PvAMP66 and PvAMP172 reached the MBC for S. aureus at 50 µM and 100 µM, respectively (Table 2).\nThe evaluation of the antimicrobial activity of the peptides was conducted using the CLSI’s broth microdilution method for bacterial susceptibility testing. For the screening phase, peptides were evaluated at a single 30 μM concentration, in triplicate and in three independent assays, against the E. coli ATCC® 8739, E. coli ATCC® 25922, S. aureus ATCC® 6538, or S. aureus ATCC® 29213 reference USP and CLSI strains. […] Following this, the bacteria were suspended in Mueller-Hinton broth up to a concentration of approximately 1.50 × 10^8 CFU/mL, as measured by optical density at 600 nm between 0.06 to 0.11 (0.5 McFarland standard), in a Multiskan SkyHigh spectrophotometer (ThermoFisher Scientific, Waltham, MA, USA). […] The plate was incubated for 24 h at 37 °C (BE 500, Memmert GmbH, Büchenbach, Germany) and optical density was measured at 600 nm in a Multiskan SkyHigh spectrophotometer (ThermoFisher Scientific, Waltham, MI, USA). […]"}}, "note": "Ends that are not written are not given here.", "data": [{"substance": "WKKIKKFF-NH2 [PvAMP66]", "values": [{"measurement": "E. coli ATCC® 25922 (Inhibition %)", "setting": "[1]", "value": "73.59 ± 21.83", "unit": "%"}, {"measurement": "E. coli ATCC® 8739 (Inhibition %)", "setting": "[2]", "value": "88.81 ± 18.15", "unit": "%"}, {"measurement": "S. aureus ATCC® 29213 (Inhibition %)", "setting": "[3]", "value": "98.25 ± 0.39", "unit": "%"}, {"measurement": "S. aureus ATCC® 6538 (Inhibition %)", "setting": "[4]", "value": "139.72 ± 1.90", "unit": "%"}, {"measurement": "MIC", "setting": "[5]; 1.56–200 µM, 24 h 37 °C, visual inspection", "value": 100, "unit": "µM"}, {"measurement": "IC50", "setting": "[5]; growth inhibition OD600, 95% confidence interval in parentheses", "value": 45.5, "unit": "µM"}]}]}
